Data reported in patent US6486199B1, “Spiro and dispiro 1,2,4-trioxolane antimalarials” (Medicines for Malaria Venture MMV International Centre …, priority 2001, dated 2002).
≈ marks a conversion by molar mass, not a printed value. Where “and” joins values, the source holds several entries; their conditions need not be identical. Identical values can stand only once. Like-named read-outs stand apart in the source and are kept apart here. Marks after values point to notes of the source that are not given here.

How the values were obtained:
[1] = test system: 21-day-old schistosomules of Schistosoma mansoni; assay: effect on 21-day-old schistosomules in mice; type: in vivo; conditions: single 200 mg/kg per os; for FWR (%): female worm reduction rate; for Mean female worm burden: mean ± standard deviation; for TWR (%): total worm reduction rate
Method: […] Each group was treated per os with OZ compounds at a single dose of 200 mg/kg. Untreated mice served as the control. All groups were killed 4 weeks after treatment and the liver and intestine were removed and separated. The liver and intestine were compressed and alive male and female worms could be seen and counted. The effect of the compounds was evaluated by mean total and female worm burden.

P. berghei [2] = assay: 1-day Peters test against P. berghei in vivo; conditions: 1 day
P. berghei [3] = assay: 4-day Peters test against P. berghei in vivo; conditions: 4 day
adult S. mansoni = assay: activity against adult S. mansoni, treated once at day 49 of infection; type: in vivo; conditions: OZ05 200 mg/kg p.o., OZ11 100 mg/kg p.o.
[4] = differential scanning calorimetry (DSC), thermal stability; type: physicochemical; conditions: thermal decomposition
parasitemia = assay: onset of drug action and recrudescence after single oral dose; type: in vivo; conditions: for duration of action compared with artemether: single 100 mg/kg po; for Recrudescence (>5% parasitemia) occurs on day: single 100 mg/kg po on day +3 post-infection
Method: The reduction of parasitemia was monitored 12 h after treatment, and the time of recrudescence was assessed by daily blood smears for 14 days, followed by intermittent assessment for up to 30 days.

[5] = test system: adult schistosomes (49-day-old) of Schistosoma mansoni; assay: effect on adult schistosomes (49-day-old) in mice; type: in vivo; conditions: single 400 mg/kg per os; for TWR (%): total worm reduction rate; for Mean total worm burden: x ± SD
Method: Mice were infected with 100 Schistosoma mansoni cercariae […]. Each group was treated per os with OZ compounds at a single dose of 400 mg/kg. Untreated mice served as the control. All groups were killed 4 weeks after treatment and the liver and intestine were removed and separated. The liver and intestine were compressed and alive male and female worms could be seen and counted.

[6] = test system: ANKA strain of P. Berghei; assay: single dose STI in vivo screen in infected Moro SPF mice; conditions: for inhibition in vivo at 10 mg/kg / inhibition in vivo at 100 mg/kg: Plasmodium berghei, 72 h
[7] = test system: chloroquine-sensitive NF54 strain of P. falciparum; assay: in vitro screen against chloroquine-sensitive NF54 strain of P. falciparum; type: cell-based; conditions: Plasmodium falciparum, NF54, read-out: IC50 (ng/ml) NF54
[8] = test system: chloroquine-resistant K1 strain of P. falciparum; assay: in vitro screen against chloroquine-resistant K1 strain of P. falciparum; type: cell-based
NB2a cell line = assay: neurotoxicity against the NB2a cell line; type: cell-based; conditions: NB2a cell line
Schistosoma mansoni = assay: treatment of mice infected with Schistosoma mansoni cercaria, six weekly oral doses; type: in vivo; conditions: 100 mg/kg p.o. on days 7, 14, 21, 28, 35, 42; individual mice
Source text: Mice (MORO SPF female 18-20g) were infected with 90 (±10) cecaria of Schistosoma mansoni subcutaneously.

[9] = single 100 mg/kg po, survival to day 30 = cure
[10] = single 100 mg/kg sc, survival to day 30 = cure

SMILES: CC1(C)COC2(CCC3(CC2)OOC2(O3)C3CC4CC(C3)CC2C4)OC1 (centres unmarked) [OZ11, Adamantane-2-spiro-3′-11′,11′-dimethyl-1′,2′,4′,9′,13′-pentaoxadispiro[4.2.5.2]pentadecane]
- FWR (%) [1]: 84%
- Mean female worm burden [1]: 2.0 ± 1.9^b
- TWR (%) [1]: 85%
- P. berghei (1 day) ED50 po (P. berghei [2]; po): 1.5 mg/kg
- P. berghei (1 day) ED90 po (P. berghei [2]; po): 2.8 mg/kg
- P. berghei (1 day) ED90 sc (P. berghei [2]; sc): NA/0.87 mg/kg
- P. berghei (4 day) ED50 po (P. berghei [3]): 1.8 mg/kg
- P. berghei (4 day) ED90 po (P. berghei [3]): 3.1 mg/kg
- P. berghei (4 day) ED50 sc (P. berghei [3]): 0.5 mg/kg
- P. berghei (4 day) ED90 sc (P. berghei [3]): 0.9 mg/kg
- activity against adult S. mansoni (adult S. mansoni): showed activity
- Tm dec. (° C.) [4]: 162.4 °C
- duration of action compared with artemether (parasitemia): longer
- Recrudescence (>5% parasitemia) occurs on day (parasitemia): 10 days
- Percentage of dead worm [5]: 3.9 (6/156)
- Total dead worm [5]: 6
- TWR (%) [5]: 16.2%
- Mean total worm burden [5]: 30.0 ± 1.9^a

SMILES: CO[C@H]1O[C@@H]2O[C@@]3(C)CC[C@H]4[C@H](C)CC[C@@H]([C@H]1C)[C@@]24OO3 [Artemether, artemether, reference compound]
- TWR (%) [1]: 82.2%
- inhibition in vivo at 10 mg/kg ([6]; percent reduction in parasitemia day 3 post-infection, single 10 mg/kg po, read-out: Activity (%) po): 98.7%
- inhibition in vivo at 10 mg/kg ([6]; percent reduction in parasitemia day 3 post-infection, single 10 mg/kg sc, read-out: Activity (%) sc): 100%
- inhibition in vivo at 100 mg/kg ([6]; percent reduction in parasitemia day 3 post-infection, single 100 mg/kg po, read-out: Activity (%) po): 100%
- inhibition in vivo at 100 mg/kg ([6]; percent reduction in parasitemia day 3 post-infection, single 100 mg/kg sc, read-out: Activity (%) sc): 100%
- Survival (days) po ([6]; single 10 mg/kg po): 8.0 days
- Survival (days) sc ([6]; single 10 mg/kg sc): 9.0 days
- Survival (days) po [6, 9]: 14.7/14.7 days
- Survival (days) sc [6, 10]: 14.7/14.7 days
- P. berghei (1 day) ED90 sc (P. berghei [2]; sc): 2.3 mg/kg
- ED50 (P. berghei [2]; Plasmodium berghei, 24 h, po, read-out: P. berghei (1 day) ED50 po): 2 mg/kg
- ED90 (P. berghei [2]; Plasmodium berghei, 24 h, po, read-out: P. berghei (1 day) ED90 po): 4.3 mg/kg
- ED50 (P. berghei [2]; Plasmodium berghei, 24 h, sc, read-out: P. berghei (1 day) ED50 sc): 2.1 mg/kg
- IC50 [7]: 0.37 ng/mL (≈ 1.24 nM)
- activity against adult S. mansoni (adult S. mansoni): no activity
- TWR (%) [5]: 31.0%
- IC50 ([8]; Plasmodium falciparum, K1, read-out: IC50 (ng/ml) K1): 0.5 ng/mL (≈ 1.68 nM)

SMILES: O=C1CCC2(CC1)OOC1(O2)C2CC3CC(C2)CC1C3 (centres unmarked) [OZ05, Adamantane-2-spiro-3′-8′-oxo-1′,2′,4′-trioxaspiro[4.5]decane]
- FWR (%) [1]: 88%
- Mean female worm burden [1]: 1.5 ± 1.0^b
- TWR (%) [1]: 90%
- IC50 (NB2a cell line): 31 µM
- antimalarial activity, overall assessment ([6]; overall judgement of in vitro and in vivo data of Table 2): more active
- Activity (%) po ([6]; percent reduction in parasitemia day 3 post-infection, single 100 mg/kg po): 100/100%
- Activity (%) sc ([6]; percent reduction in parasitemia day 3 post-infection, single 100 mg/kg sc): 100/100%
- Survival (days) po [6, 9]: 10.7 days
- Survival (days) sc [6, 10]: 30 days
- P. berghei (1 day) ED50 po (P. berghei [2]; po): 3.5 mg/kg
- P. berghei (1 day) ED90 po (P. berghei [2]; po): 7.0 mg/kg
- P. berghei (1 day) ED50 sc (P. berghei [2]; sc): 0.16 mg/kg
- P. berghei (1 day) ED90 sc (P. berghei [2]; sc): 2.3 mg/kg
- P. berghei (4 day) ED50 po (P. berghei [3]): 1.5 mg/kg
- P. berghei (4 day) ED90 po (P. berghei [3]): 6.1 mg/kg
- P. berghei (4 day) ED50 sc (P. berghei [3]): 0.6 mg/kg
- P. berghei (4 day) ED90 sc (P. berghei [3]): 1.0 mg/kg
- activity against adult S. mansoni (adult S. mansoni): showed activity
- reduction in parasitaemia (Schistosoma mansoni): 100% and 53%
- Tm dec. (° C.) [4]: 156.3 °C
- duration of action compared with artemether (parasitemia): comparable
- Recrudescence (>5% parasitemia) occurs on day (parasitemia): 5 days
- Percentage of dead worm [5]: 13.4 (31/232)
- Total dead worm [5]: 31
- TWR (%) [5]: 0%
- Mean total worm burden [5]: 40.2 ± 13.6
- IC50 (ng/ml) K1 ([8]; in vitro, K1 strain): 0.19 ng/mL (≈ 0.683 nM)
